Measured values from PubChem BioAssay (NCI).
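1) Cells in 96-well plates. 2) Compound, 48 h, 5 concentrations. 3) Linear interpolation between surrounding doses. 4) Unreached endpoint = highest concentration. GI50: concentration for 50% inhibition of growth. TGI: total growth inhibition.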

Assays:
Test in all cases: NCI anticancer screen, dose series, 48 h
[1] = tested on: MDA-MB-435
[2] = tested on: SR leukemia
[3] = tested on: HCT-15 colon
[4] = tested on: OVCAR-4 ovarian
[5] = tested on: HOP-62 NSCLC
[6] = tested on: OVCAR-5 ovarian
[7] = tested on: HL-60(TB) leukemia
[8] = tested on: A549 NSCLC
[9] = tested on: DU-145 prostate
[10] = tested on: SK-MEL-2 melanoma
[11] = tested on: SK-MEL-28 melanoma
[12] = tested on: COLO 205 colon
[13] = tested on: NCI-H522 lung
[14] = tested on: BT-549 breast
[15] = tested on: SF-268 CNS
[16] = tested on: HCT-116 colon
[17] = tested on: CCRF-CEM leukemia
[18] = tested on: MCF7 breast
[19] = tested on: TK-10 renal
[20] = tested on: NCI/ADR-RES ovarian
[21] = tested on: UACC-62 melanoma
[22] = tested on: CAKI-1 renal
[23] = tested on: SNB-19 CNS
[24] = tested on: SN12C renal
[25] = tested on: NCI-H226 lung
[26] = tested on: IGROV1 ovarian
[27] = tested on: 786-0 renal
[28] = tested on: SK-OV-3 ovarian
[29] = tested on: UACC-257 melanoma
[30] = tested on: SNB-75 CNS
[31] = tested on: HT29 colon
[32] = tested on: SF-539 CNS
[33] = tested on: SK-MEL-5 melanoma
[34] = tested on: T-47D breast
[35] = tested on: HS 578T breast
[36] = tested on: PC-3 prostate
[37] = tested on: MALME-3M melanoma
[38] = tested on: MDA-MB-231 breast
[39] = tested on: UO-31 renal
[40] = tested on: HOP-92 NSCLC
[41] = tested on: MOLT-4 leukemia
[42] = tested on: EKVX NSCLC
[43] = tested on: K-562 leukemia
[44] = tested on: RXF 393 renal
[45] = tested on: A498 renal
[46] = tested on: KM12 colon
[47] = tested on: NCI-H23 lung
[48] = tested on: HCC-2998 colon
[49] = tested on: M14 melanoma
[50] = tested on: SW-620 colon
[51] = tested on: U251 CNS
[52] = tested on: OVCAR-8 ovarian
[53] = tested on: NCI-H460 lung

C#CCNC1CCC(c2csc(C#C)n2)=C1C (stereo unspecified)
GI50 [1]: 16 µM
TGI [1]: 67 µM
GI50 [2]: 1.3 µM
TGI [2]: 8.24 µM
GI50 [3]: 6.66 µM
TGI [3]: 22.7 µM
GI50 [4]: 23.5 µM
TGI [4]: > 100 µM
GI50 [5]: 1.89 µM
TGI [5]: 4.98 µM
GI50 [6]: 4.77 µM
TGI [6]: > 100 µM
GI50 [7]: 2.3 µM
TGI [7]: 5.29 µM
GI50 [8]: 10.3 µM
TGI [8]: > 100 µM
GI50 [9]: 5.97 µM
TGI [9]: > 100 µM
GI50 [10]: 24.8 µM
TGI [10]: > 100 µM
GI50 [11]: 25.1 µM
TGI [11]: > 100 µM
GI50 [12]: 17.1 µM
TGI [12]: 39.1 µM
GI50 [13]: 1.83 µM
TGI [13]: 3.85 µM
GI50 [14]: 1.8 µM
TGI [14]: 3.58 µM
GI50 [15]: 2.59 µM
TGI [15]: 8.27 µM
GI50 [16]: 4.79 µM
TGI [16]: 70.1 µM
GI50 [17]: 0.922 µM
TGI [17]: 4.94 µM
GI50 [18]: 3.41 µM
TGI [18]: 18.3 µM
GI50 [19]: > 100 µM
TGI [19]: > 100 µM
GI50 [20]: 6.11 µM
TGI [20]: > 100 µM
GI50 [21]: 9.74 µM
TGI [21]: > 100 µM
GI50 [22]: 2.11 µM
TGI [22]: 11.5 µM
GI50 [23]: 4.33 µM
TGI [23]: > 100 µM
GI50 [24]: 3.94 µM
TGI [24]: > 100 µM
GI50 [25]: 11.4 µM
TGI [25]: > 100 µM
GI50 [26]: 0.183 µM
TGI [26]: 0.391 µM
GI50 [27]: 0.195 µM
TGI [27]: 0.368 µM
GI50 [28]: 2.57 µM
TGI [28]: 7.41 µM
GI50 [29]: 32.1 µM
TGI [29]: > 100 µM
GI50 [30]: 1.05 µM
TGI [30]: 2.24 µM
GI50 [31]: 2.88 µM
TGI [31]: 10.3 µM
GI50 [32]: 1.75 µM
TGI [32]: 3.28 µM
GI50 [33]: 7.98 µM
TGI [33]: 24.2 µM
GI50 [34]: 3.88 µM
TGI [34]: > 100 µM
GI50 [35]: 2.99 µM
TGI [35]: 36.6 µM
GI50 [36]: 3.79 µM
TGI [36]: > 100 µM
GI50 [37]: 1.68 µM
TGI [37]: 3.37 µM
GI50 [38]: 1.56 µM
TGI [38]: 3.98 µM
GI50 [39]: 0.136 µM
TGI [39]: 0.306 µM
GI50 [40]: 1.21 µM
TGI [40]: 2.91 µM
GI50 [41]: 5.32 µM
TGI [41]: 83.8 µM
GI50 [42]: 2.51 µM
TGI [42]: 46.9 µM
GI50 [43]: 3.95 µM
TGI [43]: > 100 µM
GI50 [44]: 2.66 µM
TGI [44]: 9.49 µM
GI50 [45]: 3.9 µM
TGI [45]: 17.6 µM
GI50 [46]: 9.09 µM
TGI [46]: > 100 µM
GI50 [47]: 0.469 µM
TGI [47]: 1.87 µM
GI50 [48]: 13.3 µM
TGI [48]: 28.6 µM
GI50 [49]: 4.22 µM
TGI [49]: 90.6 µM
GI50 [50]: 8 µM
TGI [50]: 27.8 µM
GI50 [51]: 2.3 µM
TGI [51]: 6 µM
GI50 [52]: 3.06 µM
TGI [52]: > 100 µM
GI50 [53]: 4.65 µM
TGI [53]: > 100 µM
